Results from paper PMC10818824, “In Vitro and In Silico Analysis of the Bindings between Legacy and Novel Per- and Polyfluoroalkyl Substances and Human Serum Albumin” (Toxics, 2024).

biological target: T1, HSA (human serum albumin) (Homo sapiens, UniProt P02768); assay: intrinsic fluorescence quenching, double-log fit; format: binding; design: unit not given here; conditions: Tris-HCl pH 7.4, room temperature, 30 min, ex 275 nm; ethanol stocks; KA unit not given
T1 construct: gene ALB; mature single chain of 585 residues, N-terminal Asp, C-terminal Leu; untagged; monomer
T1 sequence (P02768 25-609): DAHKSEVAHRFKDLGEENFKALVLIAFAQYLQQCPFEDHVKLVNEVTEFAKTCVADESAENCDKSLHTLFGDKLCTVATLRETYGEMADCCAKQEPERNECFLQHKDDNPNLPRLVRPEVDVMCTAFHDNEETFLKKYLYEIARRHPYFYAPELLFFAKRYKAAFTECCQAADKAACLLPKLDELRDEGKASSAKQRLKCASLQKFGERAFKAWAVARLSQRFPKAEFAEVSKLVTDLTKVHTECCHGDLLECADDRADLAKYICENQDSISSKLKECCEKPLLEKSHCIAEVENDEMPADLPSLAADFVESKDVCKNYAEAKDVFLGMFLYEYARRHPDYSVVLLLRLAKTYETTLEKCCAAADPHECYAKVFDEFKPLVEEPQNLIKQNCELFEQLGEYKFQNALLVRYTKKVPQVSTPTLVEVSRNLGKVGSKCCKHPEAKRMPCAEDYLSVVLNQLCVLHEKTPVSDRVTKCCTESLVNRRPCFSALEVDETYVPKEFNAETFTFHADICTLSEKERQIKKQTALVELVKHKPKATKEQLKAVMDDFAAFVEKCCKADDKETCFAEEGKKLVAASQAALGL
Source text: intrinsic fluorescence quenching, double-log fit on HSA (human serum albumin)

Compound	Binding Constant KA
O=S(=O)(O)C(F)(F)C(F)(F)C(F)(F)C(F)(F)C(F)(F)C(F)(F)C(F)(F)C(F)(F)F [PFOS]	394.639
O=C(O)C(F)(F)C(F)OC(F)(F)C(F)(F)C(F)(F)OC(F)(F)F (centres unmarked) [NaDONA, sodium dodecafluoro-3H–4,8–dioxanonanoate]	93.0894
O=S(=O)(O)C(F)(F)C(F)(F)OC(F)(F)C(F)(F)C(F)(F)C(F)(F)C(F)(F)C(F)(F)C(F)(F)C(F)(F)Cl [11Cl-PF3OUdS, 11–chloroeicosafluoro–3–oxaundecane–1–sulfonic acid]	127.6145
O=S(=O)(O)C(F)(F)C(F)(F)C(F)(F)F [PFPrS]	79.4511
O=S(=O)(O)C(F)(F)C(F)(F)C(F)(F)C(F)(F)F [PFBS]	116.4930
O=C(O)C(F)(F)C(F)(F)C(F)(F)F [PFBA]	20.3657
O=S(=O)(O)C(F)(F)C(F)(F)C(F)(F)C(F)(F)C(F)(F)C(F)(F)F [PFHxS]	157.9429
O=S(=O)(O)C(F)(F)C(F)(F)OC(F)(F)C(F)(F)C(F)(F)C(F)(F)C(F)(F)C(F)(F)Cl [9Cl-PF3ONS, 9–chlorohexadecafluoro–3–oxanone–1–sulfonic acid]	117.112
